In US20190022253A1, “UNIT DOSAGE OF APADENOSON” (University of Virginia Patent Foundation, priority 2008, published 2019):

Columns and labels:
patients [1] = settings: intravenous bolus, dosage from 0.5 to 2 μg/kg; limited number of patients (FIG. 1); Kern et al 2006; cited from earlier work
patients [2] = assay: Phase II study: coronary blood flow velocity monitored with a flow wire; assay type: in vivo, human
Experimental: that can be used in clinical perfusion imaging techniques (e.g., for diagnosing and assessing the extent of coronary artery disease) in U.S. Pat. No. 6,322,771. This agent has since been taken into Phase I and II clinical trials. In 2005, Dr. […] et al reported to the American Heart Association on the preliminary results of 127 patient SPECT Tc^99m sestamibi imaging studying comparing adenosine with Apadenoson using either 1 μg/kg or 2 μg/kg intravenous boluses of Apadenoson. […] In 2006, Dr. Kern et al reported to the American Heart Association the results of a Phase II study of Apadenoson, one goal of which was to determine an appropriate dose for Phase III clinical trials. Intravenous bolus dosages of 0.5, 1.0, 2.0, and 2.5 μg/kg were studied. […] In this Phase II study in 100 patients, conducted by Dr. Morton Kern, an independent investigator at UC Irvine, […] was administered by intracoronary injection, and coronary blood flow velocity was monitored with a flow wire. […] The previously reported increase in coronary blood flow velocity (CBFV) corresponding to an increase in dose of Apadenoson from 0.5 to 2 μg/kg was based on the increase in CBFV in a limited number of patients (see FIG. 1).

SMILES	average peak velocity for coronary blood flow versus dose (patients [1])	dose response curve (patients [2]; 1 μg/kg or 2 μg/kg administered)	dose response of coronary blood flow velocity (CBFV) (patients [2]; entire sample of patients (FIG. 2, 33 patients), dose ≥1 μg/kg, in particular between 1 and 2.5 μg/kg)	peak flow compared with adenosine (patients [2]; increasing bolus doses, one patient (FIG. 1))	coronary blood flow velocity (patients [2]; three intracoronary injections, one patient (FIG. 1))
CCNC(=O)[C@H]1O[C@@H](n2cnc3c(N)nc(C#CC[C@H]4CC[C@H](C(=O)OC)CC4)nc32)[C@H](O)[C@@H]1O [Apadenoson]	increase with a corresponding increase in dosage	no dose response curve is seen	no dose response is seen	achieved peak flow equivalent to adenosine	
Nc1ncnc2c1ncn2[C@@H]1O[C@H](CO)[C@@H](O)[C@H]1O [adenosine, reference compound]					increased blood flow velocity
